# Test system: 817829-284-R-J1-PDC complex spheroids, viability
# Experiment: Anticancer human tumor 817829-284-R-J1-PDC patient-derived colon adenocarcinoma cell line growth inhibition [GQUAD]
# Details: second compound 10 µM; first compound 0.0316 µM; hits give low values
# From the text: DNA G-quadruplex Stabilizer Agents in Combinations in Complex Spheroids
# A high-throughput screen of multi-cell type tumor spheroids was designed to identify active combinations of DNA G-quadruplex stabilizer agents and targeted small molecules. Complex spheroids include a stromal component modeled by human endothelial cells (HUVEC) and fibroblasts modeled by human mesenchymal stem cells (MSCs). The concentration ranges selected for each drug and investigational agent were based upon clinically achievable concentrations if the clinical Cmax of the agent was known.
# Compounds. The drugs and investigational agents: pidnarulex (CX-5461; NSC782164), APTO-253 (NSC789042), BRACO-19 (NSC847499), peposertib (NSC802822), ceralasertib (NSC780249), elimusertib (NSC800525), camonsertib (NSC841442), AZD-1390 (NSC803789), olaparib (NSC753686), talazoparib (NSC767125), ART-558 (NSC835418), sotorasib (NSC818433), MRTX-1133 (NSC836407), SN-38 (NSC673596), topotecan (NSC609699), etoposide (NSC141540), doxorubicin (NSC123127), gemcitabine (NSC613327), 5-fluorouracil (NSC19893), paclitaxel (NSC125973), vemurafenib (NSC761431), panobinostat (NSC761190), R-306465 (JNJ-16241199; NSC773264), adavosertib (NSC754352), TP-3654 (NSC805149), carboplatin (NSC241240), KSQ-4279 (NSC840948), and staurosporine (NSC755774) were obtained from the National Cancer Institute (NCI) Developmental Therapeutics Program Chemical Repository (34). The FDA-approved anticancer drug set is available from the NCI Developmental Therapeutics Program. […] The stock solutions were prepared in dimethyl sulfoxide (DMSO, Sigma-Aldrich, St. Louis, MO, cat. D2650) at 800-fold the tested concentration and stored at -70 degrees C prior to their use. All drugs and investigational agents were tested over a range starting from a high concentration at or near the clinical Cmax and decreasing in half-log increments. If the clinical Cmax for an agent had not been determined, the highest concentration tested was 10 microM.
# 2.3 Cell Culture. All cells were maintained in an incubator at 37 degrees C and 5% CO2 with 95% humidity. The PDC lines were cultured according to standard operating procedures established by the NCI PDMR. All PDCs were thawed and cultured in Matrigel-coated flasks prepared with a working solution of 1X Ham's F-12 nutrient mix, without supplementation (Invitrogen, cat. 11765054), 100 U/mL penicillin-streptomycin (Invitrogen, cat. 15140122), and 2.5% Matrigel (Corning Inc., cat. 354248) for the first three passages. The 857933-349-R-J2-PDC line was cultured in 6C/Colon 1B media, which includes advanced DMEM/F-12 (Thermo Fisher Scientific, cat. 12634028), 10 mM HEPES (Thermo Fisher Scientific, cat. 15630080), 1X GlutaMAX supplement (Thermo Fisher Scientific, cat. 35050061), 0.1 mg/mL primocin (InvivoGen, cat. ant-pm-2), 10% defined fetal bovine serum, heat inactivated (HyClone Laboratories Inc., cat. SH30070.03HI), 50% L-WRN conditioned media (ATCC, cat. CRL-3276), 1.25 mM N-Acetyl-L-cysteine (Sigma-Aldrich, cat. A9165), 10 mM nicotinamide (Sigma-Aldrich, cat. N0636), 1X B-27 supplement (Thermo Fisher Scientific, cat. 17504044), 1X N-2 supplement (Thermo Fisher Scientific, cat. 17502048), 10 microM Y-27632 dihydrochloride (Tocris Bioscience, cat. 1254), and 50 ng/mL human EGF recombinant protein (Thermo Fisher Scientific, cat. PHG0311). The 485176-168-R4-J1-PDC line was cultured in Panc media, which includes all 6C/Colon 1B media components plus 100 ng/mL human FGF-10 (Thermo Fisher Scientific, cat. 100-26), 500 nM SB-431542 (Selleckchem, cat. S1067), and gastrin (Tocris, cat. 3006).
# […]
# 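Further: spheroids exposed to agents for 7 days before readout; percent viability relative to DMSO vehicle control taken as 100%.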
row,SMILES,"viability, T/C"
1,COc1ccc([C@@H](O)c2cc(-c3ncnc4cc(N5CCOCC5)ccc34)c(F)cc2Cl)nn1 + Cc1[nH]c2ccc(F)cc2c1-c1nc2c3cccnc3c3ncccc3c2[nH]1,41.2%

# Same assay, conditions: second compound 10 µM; first compound 0.1 µM; hits give low values
row,SMILES,"viability, T/C"
1,CC(C)(O)C1CCC(Nc2ccc3ncc(-c4cccc(C(F)(F)F)c4)n3n2)CC1 (stereo unspecified) + CN(C)c1ccc(Nc2c3ccc(NC(=O)CCN4CCCC4)cc3nc3cc(NC(=O)CCN4CCCC4)ccc23)cc1,102%
2,CC1COCCN1c1cc(-c2ccnn2C)c2ccnc(-c3ccn[nH]3)c2n1 (stereo unspecified) + Cc1[nH]c2ccc(F)cc2c1-c1nc2c3cccnc3c3ncccc3c2[nH]1,4.74%
3,CC1COCCN1c1cc(C2(S(C)(=N)=O)CC2)nc(-c2ccnc3[nH]ccc23)n1 (stereo unspecified) + Cc1[nH]c2ccc(F)cc2c1-c1nc2c3cccnc3c3ncccc3c2[nH]1,39.1%
4,COc1ccc([C@@H](O)c2cc(-c3ncnc4cc(N5CCOCC5)ccc34)c(F)cc2Cl)nn1 + Cc1[nH]c2ccc(F)cc2c1-c1nc2c3cccnc3c3ncccc3c2[nH]1,82.5%

# Same assay, conditions: second compound 10 µM; first compound 0.316 µM; hits give low values
row,SMILES,"viability, T/C"
1,CC(C)(O)C1CCC(Nc2ccc3ncc(-c4cccc(C(F)(F)F)c4)n3n2)CC1 (stereo unspecified) + CN(C)c1ccc(Nc2c3ccc(NC(=O)CCN4CCCC4)cc3nc3cc(NC(=O)CCN4CCCC4)ccc23)cc1,87.2%
2,CC1COCCN1c1cc(-c2ccnn2C)c2ccnc(-c3ccn[nH]3)c2n1 (stereo unspecified) + Cc1[nH]c2ccc(F)cc2c1-c1nc2c3cccnc3c3ncccc3c2[nH]1,3.18%
3,CC1COCCN1c1cc(C2(S(C)(=N)=O)CC2)nc(-c2ccnc3[nH]ccc23)n1 (stereo unspecified) + Cc1[nH]c2ccc(F)cc2c1-c1nc2c3cccnc3c3ncccc3c2[nH]1,30.1%
4,COc1ccc([C@@H](O)c2cc(-c3ncnc4cc(N5CCOCC5)ccc34)c(F)cc2Cl)nn1 + Cc1[nH]c2ccc(F)cc2c1-c1nc2c3cccnc3c3ncccc3c2[nH]1,45.6%

# Same assay, conditions: second compound 10 µM; first compound 1 µM; hits give low values
row,SMILES,"viability, T/C"
1,CC(C)(O)C1CCC(Nc2ccc3ncc(-c4cccc(C(F)(F)F)c4)n3n2)CC1 (stereo unspecified) + CN(C)c1ccc(Nc2c3ccc(NC(=O)CCN4CCCC4)cc3nc3cc(NC(=O)CCN4CCCC4)ccc23)cc1,58.5%
2,CC1COCCN1c1cc(-c2ccnn2C)c2ccnc(-c3ccn[nH]3)c2n1 (stereo unspecified) + Cc1[nH]c2ccc(F)cc2c1-c1nc2c3cccnc3c3ncccc3c2[nH]1,3.81%
3,CC1COCCN1c1cc(C2(S(C)(=N)=O)CC2)nc(-c2ccnc3[nH]ccc23)n1 (stereo unspecified) + Cc1[nH]c2ccc(F)cc2c1-c1nc2c3cccnc3c3ncccc3c2[nH]1,4.8%
4,COc1ccc([C@@H](O)c2cc(-c3ncnc4cc(N5CCOCC5)ccc34)c(F)cc2Cl)nn1 + Cc1[nH]c2ccc(F)cc2c1-c1nc2c3cccnc3c3ncccc3c2[nH]1,29.6%

# Same assay, conditions: second compound 10 µM; first compound 3.16 µM; hits give low values
row,SMILES,"viability, T/C"
1,CC(C)(O)C1CCC(Nc2ccc3ncc(-c4cccc(C(F)(F)F)c4)n3n2)CC1 (stereo unspecified) + CN(C)c1ccc(Nc2c3ccc(NC(=O)CCN4CCCC4)cc3nc3cc(NC(=O)CCN4CCCC4)ccc23)cc1,5.62%
2,CC1COCCN1c1cc(-c2ccnn2C)c2ccnc(-c3ccn[nH]3)c2n1 (stereo unspecified) + Cc1[nH]c2ccc(F)cc2c1-c1nc2c3cccnc3c3ncccc3c2[nH]1,2.63%
3,CC1COCCN1c1cc(C2(S(C)(=N)=O)CC2)nc(-c2ccnc3[nH]ccc23)n1 (stereo unspecified) + Cc1[nH]c2ccc(F)cc2c1-c1nc2c3cccnc3c3ncccc3c2[nH]1,4.1%
4,COc1ccc([C@@H](O)c2cc(-c3ncnc4cc(N5CCOCC5)ccc34)c(F)cc2Cl)nn1 + Cc1[nH]c2ccc(F)cc2c1-c1nc2c3cccnc3c3ncccc3c2[nH]1,33%

# Same assay, conditions: second compound 10 µM; first compound 10 µM; hits give low values
row,SMILES,"viability, T/C"
1,CC(C)(O)C1CCC(Nc2ccc3ncc(-c4cccc(C(F)(F)F)c4)n3n2)CC1 (stereo unspecified) + CN(C)c1ccc(Nc2c3ccc(NC(=O)CCN4CCCC4)cc3nc3cc(NC(=O)CCN4CCCC4)ccc23)cc1,2.44%
2,CC1COCCN1c1cc(-c2ccnn2C)c2ccnc(-c3ccn[nH]3)c2n1 (stereo unspecified) + Cc1[nH]c2ccc(F)cc2c1-c1nc2c3cccnc3c3ncccc3c2[nH]1,2.34%
3,CC1COCCN1c1cc(C2(S(C)(=N)=O)CC2)nc(-c2ccnc3[nH]ccc23)n1 (stereo unspecified) + Cc1[nH]c2ccc(F)cc2c1-c1nc2c3cccnc3c3ncccc3c2[nH]1,2.86%
4,COc1ccc([C@@H](O)c2cc(-c3ncnc4cc(N5CCOCC5)ccc34)c(F)cc2Cl)nn1 + Cc1[nH]c2ccc(F)cc2c1-c1nc2c3cccnc3c3ncccc3c2[nH]1,7.18%
